Tests used:
[1] = Inhibition of Iks current in isolated guinea pig myocytes during a 1s voltage clamp step from -50 to +50 mV.; type: functional, cell-based; details: Cavia porcellus
[2] = target: T1, IKr current (KCNH2 potassium channel) (Homo sapiens, UniProt Q12809); assay: Inhibition of Ikr current in isolated guinea pig myocytes during a 0.5 s voltage clamp step from -50 to -10 mV at 1000 nM; type: functional, cell-based, Cavia porcellus; details: target entry is the homologue from another species
T1 sequence (Q12809 whole entry): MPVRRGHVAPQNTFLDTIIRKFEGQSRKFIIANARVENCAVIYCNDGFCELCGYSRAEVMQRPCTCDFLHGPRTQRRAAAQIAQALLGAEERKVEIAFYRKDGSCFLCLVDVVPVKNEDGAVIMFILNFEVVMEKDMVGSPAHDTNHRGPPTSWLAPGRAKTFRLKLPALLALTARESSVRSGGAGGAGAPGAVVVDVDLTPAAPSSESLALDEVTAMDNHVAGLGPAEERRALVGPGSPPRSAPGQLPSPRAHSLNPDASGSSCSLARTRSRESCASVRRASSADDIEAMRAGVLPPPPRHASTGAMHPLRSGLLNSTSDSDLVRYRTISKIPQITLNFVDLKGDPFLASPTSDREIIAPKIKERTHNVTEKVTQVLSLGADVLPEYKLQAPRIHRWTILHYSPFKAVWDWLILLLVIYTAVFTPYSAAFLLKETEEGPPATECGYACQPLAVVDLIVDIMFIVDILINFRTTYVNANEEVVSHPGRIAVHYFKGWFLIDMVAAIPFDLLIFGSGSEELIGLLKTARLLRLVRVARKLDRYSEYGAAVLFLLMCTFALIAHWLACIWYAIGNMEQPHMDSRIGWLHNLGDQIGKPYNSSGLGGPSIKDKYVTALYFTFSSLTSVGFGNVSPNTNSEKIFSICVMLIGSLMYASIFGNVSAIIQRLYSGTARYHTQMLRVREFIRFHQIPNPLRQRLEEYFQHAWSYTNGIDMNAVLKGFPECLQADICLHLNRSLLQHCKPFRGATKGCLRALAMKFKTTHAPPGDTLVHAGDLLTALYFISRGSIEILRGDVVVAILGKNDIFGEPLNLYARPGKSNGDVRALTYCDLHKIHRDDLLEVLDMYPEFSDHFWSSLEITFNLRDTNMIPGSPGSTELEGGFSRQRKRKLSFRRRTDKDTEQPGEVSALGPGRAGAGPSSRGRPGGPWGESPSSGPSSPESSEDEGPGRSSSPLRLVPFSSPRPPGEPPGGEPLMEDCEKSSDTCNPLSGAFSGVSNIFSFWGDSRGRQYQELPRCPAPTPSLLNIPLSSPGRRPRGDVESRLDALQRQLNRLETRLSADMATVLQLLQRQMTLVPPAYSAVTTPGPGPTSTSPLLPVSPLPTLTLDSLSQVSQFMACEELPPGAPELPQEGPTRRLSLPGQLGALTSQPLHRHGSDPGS

[3] = target: T1, IKr current (KCNH2 potassium channel); assay: Inhibition of Ikr current in isolated guinea pig myocytes during a 0.5 s voltage clamp step from -50 to -10 mV at 100 nM; type: functional, cell-based, Cavia porcellus; details: target entry is the homologue from another species
[4] = target: Voltage-gated inwardly rectifying potassium channel KCNH2 (Homo sapiens, UniProt Q12809); assay: Inhibition of Ikr current in isolated guinea pig myocytes during a 0.5 s voltage clamp step from -50 to -10 mV.; type: functional, cell-based, Cavia porcellus; details: target entry is the homologue from another species
Chain of Voltage-gated inwardly rectifying potassium channel KCNH2 (Q12809 whole entry): as above

Structure (SMILES) | IC50 [1] | inhibition at 1 µM [2] | also measured
CN1C(=O)[C@H](NC(=O)Cc2ccc(C(F)(F)F)cc2C(F)(F)F)N=C(c2ccccc2)c2ccccc21 | 140 nM | – | –
CN1C(=O)[C@H](NC(=O)Cc2ccccc2)N=C(c2ccccc2)c2ccccc21 | 300 nM | 31% | –
CN1C(=O)[C@H](NC(=O)CCc2ccccc2)N=C(c2ccccc2)c2ccccc21 | 200 nM | 32% | –
CC(C)N1C(=O)[C@H](NC(=O)CCC2CCCCC2)N=C(c2ccccc2)c2ccccc21 | 20 nM | – | –
CC(C)N1C(=O)[C@H](NC(=O)c2cc(Cl)cc(Cl)c2)N=C(c2ccccc2)c2ccccc21 | 6 nM | – | –
CN1C(=O)[C@H](NC(=O)c2cc(Cl)cc(Cl)c2)N=C(c2ccccc2)c2ccccc21 | 45 nM | 17% | –
O=C(N[C@@H]1N=C(c2ccccc2)c2ccccc2N(CC(F)(F)F)C1=O)c1cc(Cl)cc(Cl)c1 | 11 nM | – | inhibition at 0.1 µM [3]: 25%
O=C(Cc1ccc(Cl)cc1Cl)N[C@@H]1N=C(c2ccccc2)c2ccccc2N(CC(F)(F)F)C1=O | 9 nM | – | –
CN(C)CCN1C(=O)C(NC(=O)CCc2ccc(Cl)cc2Cl)N=C(c2ccccc2)c2ccccc21 (stereo not drawn) | – | – | IC50 [4]: 100 nM
CN1C(=O)[C@H](NC(=O)c2ccccc2)N=C(c2ccccc2)c2ccccc21 | 600 nM | 23% | –
CC(C)N1C(=O)[C@@H](NC(=O)c2cc(Cl)cc(Cl)c2)N=C(c2ccccc2)c2ccccc21 | – | 6% | –
CN1C(=O)[C@H](NC(=O)/C=C/c2ccc(Cl)cc2Cl)N=C(c2ccccc2)c2ccccc21 | 6 nM | – | –
CN1C(=O)[C@H](NC(=O)C(N)Cc2ccccc2)N=C(c2ccccc2)c2ccccc21 (stereo partly drawn) | 2800 nM | – | –
CC(=O)Nc1ccc(CCC(=O)N[C@@H]2N=C(c3ccccc3)c3ccccc3N(C)C2=O)cc1 | > 10000 nM | – | –
O=C(Cc1cc(Cl)cc(Cl)c1)N[C@@H]1N=C(c2ccccc2)c2ccccc2N(CC(F)(F)F)C1=O | 30 nM | – | IC50 [4]: 4000 nM
CN1C(=O)[C@H](NC(=O)CCC2CCCCC2)N=C(c2ccccc2)c2ccccc21 | 10 nM | – | IC50 [4]: 1000 nM
O=C(Cc1ccc(C(F)(F)F)cc1C(F)(F)F)N[C@H]1N=C(c2ccccc2)c2ccccc2N(CC(F)(F)F)C1=O | – | 35% | –
CC(C)N1C(=O)[C@H](NC(=O)Cc2cc(Cl)cc(Cl)c2)N=C(c2ccccc2)c2ccccc21 | 10 nM | – | –
CN1C(=O)[C@H](NC(=O)CCc2ccc(Cl)cc2Cl)N=C(c2ccccc2)c2ccccc21 | – | 31% | –
Cc1cccc(NC(=O)N[C@@H]2N=C(c3ccccc3)c3ccccc3N(C)C2=O)c1 [L-365260] | 214 nM | – | –
O=C(Cc1ccc(C(F)(F)F)cc1C(F)(F)F)N[C@@H]1N=C(c2ccccc2)c2ccccc2N(CC(F)(F)F)C1=O [L-768673] | 6 nM | – | –
